This note sets out measurements from patent publication US6962943B2, “Gabusectin derivatives, processes for preparing them and their use” (Aventis Pharma Deutschland GmbH, priority 2002, dated 2005).

Converted amounts (≈) assume the structure as drawn.

Series [1] is described as follows: Stability in solution (physicochemical properties). As to conditions: for Stability in strongly acidic and strongly alkaline solution: strongly acidic and strongly alkali(ne) solution. The text has this:
(§1) Stable in neutral and mildly acidic medium but unstable in strongly acidic and strongly alkali solution. […] Stable in neutral and mildly acidic medium but unstable in strongly acidic and strongly alkaline solution.

The nature of series [2]: Solubility (appearance/physicochemical properties).
Source text: as §1

For a further series, the system named is Staphylococcus aureus. The experiment in a line: Agar diffusion test. In kind it is cell-based. Conditions: 37° C., 16 hours. How it is done: Agar plates containing 2 ml of Staphylococcus aureus inoculum in 200 ml of agar solution were prepared. gabusectin was applied, in a 10 mM solution, to 6 mm-diameter paper disks, which were then laid on the agar plate. The inoculated Staphylococcus plates were incubated at 37° C. for 16 hours. Inhibition halos having the following diameters (mm) were then observed: Agar plates containing 2 ml of Staphylococcus aureus inoculum in 200 ml of agar solution were prepared. gabusectin methyl ester is applied, in a 10 mM solution, to 6 mm-diameter paper disks, which are then laid on the agar plate. The inoculated Staphylococcus plates were incubated at 37° C. for 16 hours. Inhibition halos having the following diameters (mm) were then observed.
In general terms: A growth-free zone around the sample is the usual read-out of agar diffusion tests.

The test system of another series is S. aureus (Exp54146). The experiment in a line: In-vitro antibacterial activity, serial dilution test. In kind it is cell-based. As to conditions: Staphylococcus aureus. The text has this: (§2) Table 1 summarizes the minimum inhibitory concentrations (MICs) of gabusectin, by way of example.
A further series relates to E. faecium (M78L). The description is as above. In kind it is cell-based. Conditions: Enterococcus faecium, read-out: MIC values.
Source text: as §2

The test system of the next series is S. pyogenes (A561). The series is described as above. The series is classed as cell-based. Conditions: Streptococcus pyogenes.
Source text: as §2

For another series, the system named is S. aureus (SG511). Described as above. The series is classed as cell-based. As to conditions: Staphylococcus aureus.
Source text: as §2

A further series in a line: Tolerability. Conditions: at and above its effective concentration. The source says: Gabusectin is well-tolerated at and above its effective concentration.
The mark [3] stands for this setting: 10 μL of 10 mM solution on 6 mm paper disk.
[4] abbreviates: 20 μL of 10 mM solution on 6 mm paper disk.
Where [5] appears, read: 40 μL of 10 mM solution on 6 mm paper disk.

As for `C/C=C/[C@H]1C(C)=C[C@@]2(C)C[C@H](C)CC[C@H]2[C@]1(C)/C(O)=C1\C(=O)C(CCC(=O)OC)N(C)C1=O` (stereo partly shown) [gabusectin methyl ester], in series [1], the “Stability in neutral and mildly acidic medium” value is recorded as “Stable”; the “Stability in strongly acidic and strongly alkaline solution” value is reported as “unstable”. Besides, in series [2], the “Solubility in medium-polar and polar organic solvents” value was “soluble”; the Solubility in water entry was “not particularly soluble”. Also, the Inhibition halo size in the series with Staphylococcus aureus (setting [3]) was found to be 0 mm. Also, the Inhibition halo size in the series with Staphylococcus aureus (setting [4]) is recorded as 7 mm. This molecule also came in with an Inhibition halo size in the series on Staphylococcus aureus (setting [5]) of 8 mm.

As a reminder, the MIC is the smallest concentration in the dilution series that meets the test's criterion for growth inhibition. For `C/C=C/C1C(C)=CC2(C)CC(C)CCC2C1(C)/C(O)=C1\C(=O)C(CCC(=O)O)N(C)C1=O` (stereo not shown) [gabusectin], the “Stability in neutral and mildly acidic medium” value in series [1] is on record as “Stable”. Further, the “Stability in strongly acidic and strongly alkaline solution” value in series [1] was “unstable”. In addition, the MIC in the series with S. aureus (Exp54146) was determined as 20 µg/mL (≈ 45.1 µM); in the series on E. faecium (M78L), 40 µg/mL (≈ 90.2 µM); against S. pyogenes (A561), 20 µg/mL (≈ 45.1 µM); against S. aureus (SG511), 5 µg/mL (≈ 11.3 µM). The Tolerability entry in the series “Tolerability” is given as “well-tolerated”. Further, the “Solubility in medium-polar and polar organic solvents” value in series [2] is listed as “soluble”. Further, in series [2], the Solubility in water entry is reported as “not particularly soluble”. For the same molecule, the results for the Inhibition halo size in the series with Staphylococcus aureus (setting [3]), in the series on Staphylococcus aureus (setting [4]) and in the series on Staphylococcus aureus (setting [5]) were 8 mm, 14 mm and 17 mm, respectively.
